Measured values reported in PMC12402003 (Frontiers in Nutrition, 2025).

What was measured:
Plin1 = assay: Western blot of Plin1 protein in Caco-2/HepG2 co-culture; assay type: cell-based, human; details: OA-induced co-culture, 50 μM, 24 h; compared vs. OA
Experimental: (§1) Cells from the co-culture model were lysed and supernatants were collected. The protein concentrations were determined using the BCA Protein Quantitation Kit. Then electrophoresis of samples was conducted using a SDS-PAGE kit (Beyotime Biotechnology) following the manufacturer’s instructions and transferred to poly-vinylidene difluoride (PVDF) membrane. Next, membranes were incubated in 5% nonfat milk to block non-specific antibody binding for 30 min at room temperature and followed by incubating with primary antibodies and secondary antibodies. Chemiluminescence based-images of the blots were acquired using ImageQuant LAS 500 system (GE, United States). Protein bands were quantified using ImageJ (version 1.53a) software. The changes in expression levels of these proteins detected finally are used to evaluate the sample’s effect on lipid metabolism.

HepG2 cells [1] = assay: MTT cell viability assay in HepG2 cells; assay type: cell-based, human; details: 24 h; for effect on cell viability: 50 μM; for cytotoxicity: 100 μM
Experimental: (§2) Cell culture: […] Subsequently, the supernatant was removed and 200 μL of MTT solution (0.1 mg/mL) was added to each well to incubate for an additional 4 h (200 μL for Caco-2 cells, 100 μL for HepG2 cells, both at a concentration of 0.1 mg/mL). Finally, formazan crystals were completely dissolved in DMSO in a shaker for 10 min and the absorbance was measured at a wavelength of 490 nm using a microplate absorbance reader (FLUOstar Omera, BMG Labtech, Germany). Cell viability was determined using the following equation: Cell viability (%) = (OD sample/OD control) × 100, where OD is the optical density. The absorbance values for drug fractions […], catechin, and […]-catechin) were compared to those of untreated culture (control). Each treatment was set up in triplicate.

[2] = system: Caco-2/HepG2 co-culture model; assay: Lipid metabolites and AST/ALT in OA-induced Caco-2/HepG2 co-culture model; assay type: cell-based, human; details: for reduction in TC content: HepG2 on BL side after transport by Caco-2, 50 μM
Experimental: Caco-2 and HepG2 cells were cultured separately at 37°C with 5% CO2 in DMEM medium containing 10% fetal bovine serum, 50 U/mL penicillin, and 50 μg/mL streptomycin. Caco-2 cells were cultured in 96-well plates for 24 h and harvested with trypsin–EDTA to seed to the AP side (1 × 10^5 cells/mL, 500 μL) in monolayers. 1,500 μL of Minimum Essential Medium (MEM) was simultaneously added to the BL compartment. HepG2 cells were seeded to the BL compartment at the day 15. The total culture period was 18 d.
The co-culture cells were collected by the previous method from the above mentioned, and the cells were lysed on ice for 30 min using IP cell lysis buffer (20 mM Tris pH 7.5, 200 mM NaCl, 10% glycerol, 0.2 mM DTT, 0.1 mM EDTA, 1 mM protease inhibitor). The contents of TG, T-CHO, LDL-C, HDL-C, AST, and ALT from HepG2 were measured following the test kit instructions. Intracellular protein content was measured to calibrate the levels of relevant metabolites using the BCA Protein Quantitation Kit (Beyotime Biotechnology).

Fabp4 = assay: Western blot of Fabp4 protein in Caco-2/HepG2 co-culture; assay type: cell-based, human; details: OA-induced co-culture, 50 μM, 24 h; compared vs. OA
Experimental: as §1

Caco-2 cells = assay: MTT cell viability assay in Caco-2 cells; assay type: cell-based, human; details: 24 h; for cell viability: 100 μM, compared to control (0 μM); for change in cell vitality: concentrations below 50 μM
Experimental: as §2

MRP2 = MRP2 (Homo sapiens, UniProt Q92887); assay: Bidirectional Caco-2 transport with probenecid (MRP inhibitor); details: for ER (efflux rate) / Papp (AP → BL) / Papp (BL → AP): 50 μmol/L, + Prob (probenecid 1 mM); for substrate of MRP2: bidirectional assay with probenecid 1 mM
Sequence of MRP2 (Q92887 whole entry): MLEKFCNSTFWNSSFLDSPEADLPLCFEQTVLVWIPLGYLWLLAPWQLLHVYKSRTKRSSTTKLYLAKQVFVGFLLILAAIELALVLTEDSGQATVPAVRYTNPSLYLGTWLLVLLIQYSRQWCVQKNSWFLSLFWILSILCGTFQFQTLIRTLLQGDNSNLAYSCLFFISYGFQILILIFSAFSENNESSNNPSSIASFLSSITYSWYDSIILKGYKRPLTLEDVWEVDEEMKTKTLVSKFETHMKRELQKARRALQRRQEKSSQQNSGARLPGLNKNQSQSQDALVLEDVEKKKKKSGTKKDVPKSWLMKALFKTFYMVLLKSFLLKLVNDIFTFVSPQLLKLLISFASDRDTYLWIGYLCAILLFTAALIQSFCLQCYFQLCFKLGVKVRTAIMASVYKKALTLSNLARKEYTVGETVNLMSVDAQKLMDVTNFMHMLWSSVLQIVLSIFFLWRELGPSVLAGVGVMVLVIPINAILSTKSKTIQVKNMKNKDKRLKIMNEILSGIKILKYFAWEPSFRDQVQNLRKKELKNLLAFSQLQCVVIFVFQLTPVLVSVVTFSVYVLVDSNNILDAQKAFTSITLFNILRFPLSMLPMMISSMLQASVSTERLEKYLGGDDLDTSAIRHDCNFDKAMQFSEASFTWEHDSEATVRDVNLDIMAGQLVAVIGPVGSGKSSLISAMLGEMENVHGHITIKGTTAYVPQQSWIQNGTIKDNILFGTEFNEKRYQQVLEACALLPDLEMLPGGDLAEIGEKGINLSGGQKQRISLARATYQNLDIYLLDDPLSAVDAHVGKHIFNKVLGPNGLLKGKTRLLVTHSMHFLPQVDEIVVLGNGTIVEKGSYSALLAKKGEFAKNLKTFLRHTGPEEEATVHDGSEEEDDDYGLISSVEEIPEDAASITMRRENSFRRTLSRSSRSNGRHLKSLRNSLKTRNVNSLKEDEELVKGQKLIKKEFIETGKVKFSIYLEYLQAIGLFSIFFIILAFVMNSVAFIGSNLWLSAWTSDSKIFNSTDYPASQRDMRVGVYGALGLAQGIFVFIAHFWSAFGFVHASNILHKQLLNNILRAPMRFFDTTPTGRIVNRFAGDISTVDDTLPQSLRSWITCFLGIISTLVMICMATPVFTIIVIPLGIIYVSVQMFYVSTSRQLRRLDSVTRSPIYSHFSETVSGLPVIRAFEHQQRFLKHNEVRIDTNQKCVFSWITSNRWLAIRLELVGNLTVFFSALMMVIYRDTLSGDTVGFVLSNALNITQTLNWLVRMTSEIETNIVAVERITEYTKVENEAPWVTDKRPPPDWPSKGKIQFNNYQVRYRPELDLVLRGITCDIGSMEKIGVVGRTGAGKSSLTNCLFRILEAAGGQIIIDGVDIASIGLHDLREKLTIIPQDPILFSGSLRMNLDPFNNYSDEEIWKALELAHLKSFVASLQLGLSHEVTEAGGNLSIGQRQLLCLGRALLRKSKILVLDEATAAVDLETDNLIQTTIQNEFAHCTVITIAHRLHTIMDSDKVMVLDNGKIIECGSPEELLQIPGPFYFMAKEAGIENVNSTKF
Experimental: (§3) Transport assay: The monolayers were pre-incubated at 37°C for 30–40 min with 5% CO2 in a pre-warmed media, which contained Hanks Balanced Salt solution (HBSS, BioWhittaker), HEPES buffer and D-glucose. For the transport of apical (AP) side to basolateral (BL) side, the media was removed after pre-incubation and 0.5 mL of polyphenols was added to the AP side. 1.5 mL of HBSS were added to the BL side. Then 200 μL of samples were taken from the BL side at 30, 60, 90, 120 and 150 min, respectively. The BA sample volumes removed were therewith replenished with same volumes of the HBSS solution. For the transport of BL to AP, polyphenols were added to BL and samples were taken from AP at a series of time points as above mentioned. The TEER was measured from the beginning to the end of the assay.
(§4) Caco-2 cells (1×10^5 cells/well) were cultured in 96-well plates for 24 h until differentiation, with a TEER value exceeding 400 Ω·cm^2. Bidirectional transport experiments from AP to BL or from BL to AP were performed as mentioned in the transport assay. The apparent permeability coefficients, cumulative release and initial concentrations and efflux rates were determined. In brief, the total transport time was set to 150 min. For AP to BL transport, 0.5 mL of polyphenols were added to AP with 1.5 mL of HBSS to the BL side. 200 μL of samples were collected from BL at different time points (30, 60, 90, 120, and 150 min). For BL to AP transport, polyphenols were added to BL and samples were collected from AP as the mentioned above.

P-gp = P-gp (Homo sapiens, UniProt P08183); assay: Bidirectional Caco-2 transport with verapamil (P-gp inhibitor); details: for ER (efflux rate) / Papp (AP → BL) / Papp (BL → AP): 50 μmol/L, + Ver (verapamil 100 μM); for substrate of P-gp: bidirectional assay with verapamil 100 μM
Sequence of P-gp (P08183 whole entry): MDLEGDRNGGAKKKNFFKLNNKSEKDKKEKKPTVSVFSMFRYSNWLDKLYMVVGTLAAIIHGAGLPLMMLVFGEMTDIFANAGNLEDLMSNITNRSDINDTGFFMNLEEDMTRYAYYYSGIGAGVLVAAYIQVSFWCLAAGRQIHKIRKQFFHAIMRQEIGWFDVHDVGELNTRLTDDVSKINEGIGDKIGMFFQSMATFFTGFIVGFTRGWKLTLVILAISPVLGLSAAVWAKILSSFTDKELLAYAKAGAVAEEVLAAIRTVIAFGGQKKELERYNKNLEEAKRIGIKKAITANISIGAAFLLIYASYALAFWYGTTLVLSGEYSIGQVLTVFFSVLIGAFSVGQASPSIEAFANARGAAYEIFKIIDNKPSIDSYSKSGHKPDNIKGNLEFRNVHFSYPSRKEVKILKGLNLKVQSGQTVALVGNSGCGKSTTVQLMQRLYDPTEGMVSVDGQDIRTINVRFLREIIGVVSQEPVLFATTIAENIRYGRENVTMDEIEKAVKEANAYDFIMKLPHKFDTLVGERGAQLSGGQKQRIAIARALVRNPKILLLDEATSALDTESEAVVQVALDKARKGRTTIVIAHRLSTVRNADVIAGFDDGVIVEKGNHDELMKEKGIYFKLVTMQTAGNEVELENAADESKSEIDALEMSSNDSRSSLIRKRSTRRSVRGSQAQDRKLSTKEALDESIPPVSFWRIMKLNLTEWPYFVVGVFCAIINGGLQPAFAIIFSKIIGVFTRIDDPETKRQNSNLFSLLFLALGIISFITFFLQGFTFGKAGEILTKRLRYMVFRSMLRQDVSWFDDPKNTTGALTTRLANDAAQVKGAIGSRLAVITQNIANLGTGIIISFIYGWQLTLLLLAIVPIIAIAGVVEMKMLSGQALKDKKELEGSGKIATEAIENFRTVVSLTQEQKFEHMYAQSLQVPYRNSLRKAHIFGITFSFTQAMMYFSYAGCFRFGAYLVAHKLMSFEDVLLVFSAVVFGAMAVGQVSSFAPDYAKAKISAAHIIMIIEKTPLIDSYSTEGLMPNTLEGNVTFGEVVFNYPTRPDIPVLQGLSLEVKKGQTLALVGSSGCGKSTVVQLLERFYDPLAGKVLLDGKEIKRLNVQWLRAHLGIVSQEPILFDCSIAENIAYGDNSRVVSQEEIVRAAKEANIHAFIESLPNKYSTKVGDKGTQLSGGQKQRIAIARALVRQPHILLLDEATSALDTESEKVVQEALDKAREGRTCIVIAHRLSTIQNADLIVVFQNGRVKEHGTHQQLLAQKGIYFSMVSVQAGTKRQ
Experimental: as §3, §4

HepG2 cells [3] = assay: Oil Red O lipid content in OA-induced high-fat HepG2 cells; details: 1 mM OA-induced HepG2 cells, 50 μM, 24 h
Experimental: For the lipid content assay: The cells were treated with 1 mM oleic acid (OA). […] The absorbance value was recorded at 530 nm using a microplate absorbance reader. Isopropanol solvent was used as a control ([14]).

Compound: OC[C@H]1O[C@@H](Oc2cc3c(O)cc(O)cc3[o+]c2-c2ccc(O)c(O)c2)[C@H](O)[C@@H](O)[C@@H]1O [C3G, Cyanidin-3-O-glucoside]
- Plin1 protein expression level (densitometry) (Plin1): 1.12
- effect on cell viability (HepG2 cells [1]): no significant effects
- cytotoxicity (HepG2 cells [1]): comparable cytotoxicity
- reduction of ALT level [2]: not observed
- reduction of AST level [2]: not observed
- reduction of OA-induced LDL-C increase ([2]; 50 μM): did not change
- reduction in TC content [2]: 7.69%
- Fabp4 protein expression level (densitometry) (Fabp4): 1.23
- cell viability (Caco-2 cells): 80%
- change in cell vitality (Caco-2 cells): No significant changes
- ER (efflux rate) (MRP2; 30 min): 0.63
- Papp (AP → BL) (MRP2; 30 min): 8.47 ± 0.39 ×10^−5 cm /s
- Papp (BL → AP) (MRP2; 30 min): 5.31 ± 0.72 ×10^−5 cm /s
- ER (efflux rate) (MRP2; 60 min): 0.61
- Papp (AP → BL) (MRP2; 60 min): 4.55 ± 0.09 ×10^−5 cm /s
- Papp (BL → AP) (MRP2; 60 min): 2.79 ± 0.37 ×10^−5 cm /s
- ER (efflux rate) (MRP2; 90 min): 0.52
- Papp (AP → BL) (MRP2; 90 min): 3.12 ± 0.02 ×10^−5 cm /s
- Papp (BL → AP) (MRP2; 90 min): 1.62 ± 0.08 ×10^−5 cm /s
- ER (efflux rate) (MRP2; 120 min): 0.53
- Papp (AP → BL) (MRP2; 120 min): 2.45 ± 0.03 ×10^−5 cm /s
- Papp (BL → AP) (MRP2; 120 min): 1.29 ± 0.09 ×10^−5 cm /s
- ER (efflux rate) (MRP2; 150 min): 0.56
- Papp (AP → BL) (MRP2; 150 min): 1.83 ± 0.09 ×10^−5 cm /s
- Papp (BL → AP) (MRP2; 150 min): 1.06 ± 0.04 ×10^−5 cm /s
- substrate of MRP2 (MRP2): not substrates
- ER (efflux rate) (P-gp; 30 min): 0.48
- Papp (AP → BL) (P-gp; 30 min): 11.4 ± 0.49 ×10^−5 cm /s
- Papp (BL → AP) (P-gp; 30 min): 5.49 ± 0.66 ×10^−5 cm /s
- ER (efflux rate) (P-gp; 60 min): 0.54
- Papp (AP → BL) (P-gp; 60 min): 5.73 ± 0.21 ×10^−5 cm /s
- Papp (BL → AP) (P-gp; 60 min): 3.07 ± 0.2 ×10^−5 cm /s
- ER (efflux rate) (P-gp; 90 min): 0.51
- Papp (AP → BL) (P-gp; 90 min): 4.05 ± 0.12 ×10^−5 cm /s
- Papp (BL → AP) (P-gp; 90 min): 2.09 ± 0.03 ×10^−5 cm /s
- ER (efflux rate) (P-gp; 120 min): 0.54
- Papp (AP → BL) (P-gp; 120 min): 3.16 ± 0.17 ×10^−5 cm /s
- Papp (BL → AP) (P-gp; 120 min): 1.71 ± 0.15 ×10^−5 cm /s
- ER (efflux rate) (P-gp; 150 min): 0.51
- Papp (AP → BL) (P-gp; 150 min): 2.47 ± 0.14 ×10^−5 cm /s
- Papp (BL → AP) (P-gp; 150 min): 1.21 ± 0.28 ×10^−5 cm /s
- substrate of P-gp (P-gp): not substrates
- decrease of lipid absorption rate (Oil Red O lipid droplets) (HepG2 cells [3]): 22.35%

Compound: O.Oc1cc(O)c2c(c1)O[C@H](c1ccc(O)c(O)c1)[C@@H](O)C2 [catechin]
- Plin1 protein expression level (densitometry) (Plin1): 1.14
- effect on cell viability (HepG2 cells [1]): no significant effects
- cytotoxicity (HepG2 cells [1]): comparable cytotoxicity
- reduction of ALT level [2]: not observed
- reduction of AST level [2]: not observed
- reduction in TC content [2]: 7.69%
- Fabp4 protein expression level (densitometry) (Fabp4): 1.23
- cell viability (Caco-2 cells): 80%
- change in cell vitality (Caco-2 cells): No significant changes
- ER (efflux rate) (MRP2; 30 min): 0.58
- Papp (AP → BL) (MRP2; 30 min): 9.19 ± 0.53 ×10^−5 cm /s
- Papp (BL → AP) (MRP2; 30 min): 5.36 ± 0.52 ×10^−5 cm /s
- ER (efflux rate) (MRP2; 60 min): 0.56
- Papp (AP → BL) (MRP2; 60 min): 4.46 ± 0.36 ×10^−5 cm /s
- Papp (BL → AP) (MRP2; 60 min): 2.50 ± 0.27 ×10^−5 cm /s
- ER (efflux rate) (MRP2; 90 min): 0.52
- Papp (BL → AP) (MRP2; 90 min): 1.64 ± 0.37 ×10^−5 cm /s
- ER (efflux rate) (MRP2; 120 min): 0.51
- Papp (AP → BL) (MRP2; 120 min): 2.48 ± 0.19 ×10^−5 cm /s
- Papp (BL → AP) (MRP2; 120 min): 1.27 ± 0.27 ×10^−5 cm /s
- ER (efflux rate) (MRP2; 150 min): 0.48
- Papp (AP → BL) (MRP2; 150 min): 1.93 ± 0.49 ×10^−5 cm /s
- Papp (BL → AP) (MRP2; 150 min): 0.98 ± 0.34 ×10^−5 cm /s
- substrate of MRP2 (MRP2): not substrates
- ER (efflux rate) (P-gp; 30 min): 0.57
- Papp (AP → BL) (P-gp; 30 min): 11.2 ± 0.23 ×10^−5 cm /s
- Papp (BL → AP) (P-gp; 30 min): 6.38 ± 0.37 ×10^−5 cm /s
- ER (efflux rate) (P-gp; 60 min): 0.57
- Papp (AP → BL) (P-gp; 60 min): 6.02 ± 0.37 ×10^−5 cm /s
- Papp (BL → AP) (P-gp; 60 min): 3.45 ± 0.29 ×10^−5 cm /s
- ER (efflux rate) (P-gp; 90 min): 0.51
- Papp (AP → BL) (P-gp; 90 min): 3.98 ± 0.31 ×10^−5 cm /s
- Papp (BL → AP) (P-gp; 90 min): 2.05 ± 0.56 ×10^−5 cm /s
- ER (efflux rate) (P-gp; 120 min): 0.52
- Papp (AP → BL) (P-gp; 120 min): 3.25 ± 0.52 ×10^−5 cm /s
- Papp (BL → AP) (P-gp; 120 min): 1.68 ± 0.29 ×10^−5 cm /s
- ER (efflux rate) (P-gp; 150 min): 0.52
- Papp (AP → BL) (P-gp; 150 min): 2.54 ± 0.17 ×10^−5 cm /s
- Papp (BL → AP) (P-gp; 150 min): 1.32 ± 0.34 ×10^−5 cm /s
- substrate of P-gp (P-gp): not substrates
- decrease of lipid absorption rate (Oil Red O lipid droplets) (HepG2 cells [3]): 31.24%
